Laboratory results reported in patent US20190374478A1, “Ultrastable Gold Nanoparticles For Drug Delivery Applications And Synthesis Thereof” (Université Laval, priority 2016, published 2019).

Assays:
[1] = Encapsulation efficiency (indirect assay, magnetic bead removal, UV-visible/HPLC of supernatant); type: physicochemical; details: 69 nM AuNPs
Description: The AuNPs and the drug are brought into contact in a screw-cap 2 mL microtube, with magnetic bar stirring, at 37° C. for a time determined according to the kinetics of encapsulation obtained by UV-visible spectroscopy.
In the case of travoprost, an encapsulation time of five days was chosen according to the encapsulation kinetics determined by UV spectroscopy at 278 nm (FIG. 9).
The method used to determine the encapsulation efficiency rely on an indirect assay by evaluating what has not been encapsulated. Once the encapsulation is complete, the entire mixture is brought into contact with magnetic beads to allow the nanoparticles that contain the encapsulated drug to be removed from the medium. The residual supernatant is then analyzed by UV-visible spectroscopy and high-performance liquid chromatography (HPLC).
To do so, a solution of 0.0005% phosphate buffered saline Tween™ (PBS-T) was prepared. The magnetic beads were then cleaned and 100 μL of magnetic beads were placed in a 1.5 mL microtube. The beads were then magnetized, and the supernatant was removed.
1 mL of the prepared PBS-T was added to the beads, the beads were then suspended with a vigorous vortex for 30 seconds. The beads were then magnetized, and the supernatant was removed. […]
The final supernatant was analyzed by UV-Visible spectroscopy (λ=200-700 nm) and by high-performance liquid chromatography (HPLC).

[2] = system: intraocular pressure in glaucomatous mice; assay: Intraocular pressure in microbead-induced hypertensive glaucoma model; type: in vivo, C57BL/6J mice
Description: An in vivo glaucoma model involving the injection of exogenous microbeads into the anterior chamber was used (FIG. 17A). The injected beads partially block the trabecular meshwork resulting in intraocular pressure (IOP) elevation while causing no damage to the site of drug action. Two-month-old C57BL/6J mice were used. The IOP was followed with a tonometer (Tonolab®) specially designed for rodents. Animals were injected with 5 μL of microbeads with a dimeter of about 10 μm (7.2×10^6 microbeads/mL) in the anterior chamber of the left eye. For the encapsulation experiments, travoprost was solubilized in water/ethanol (50/50) in the presence of AuNPs. The solution was heated (65° C.) in order to evaporate the ethanol and to induce conformational changes of PEG molecules leading to a better encapsulation. The solution was thus completed with water until the initial volume. Hypertensive glaucoma was induced in adult C57BL/6 mice by injecting 5 μL of polystyrene microbeads (35,000 microbeads) with an average diameter of 10 μm in the anterior chamber of the eye. The dispersion of the microbeads at the level of the iridocorneal angle blocks the passage of the aqueous humor towards the trabecular meshwork (FIG. 17A). Mechanically, the decrease in drainage of the aqueous humor produces an increase in intraocular pressure which is measured with a tonometer of the Tonolab brand. […]

Percentage of encapsulated travoprost ([1]; initial 80 μM travoprost): about 68.52%±4.032 | Percentage of encapsulated travoprost ([1]; initial 120 μM travoprost): about 67.98%±3.877
SMILES: CC(C)OC(=O)CCC/C=C\C[C@@H]1[C@@H](/C=C/[C@@H](O)COc2cccc(C(F)(F)F)c2)[C@H](O)C[C@@H]1O [travoprost]
Level of intraocular pressure after 24 hours ([2]; 24 hours after single topical application): returned to a high level, similar to that before treatment | Effect on intraocular pressure ([2]; single topical application, glaucomatous mice): significantly but transiently decreased
